Source: publication PMC6407576, “Synthesis and evaluation of anticancer, antiphospholipases, antiproteases, and antimetabolic syndrome activities of some 3H-quinazolin-4-one derivatives” (Journal of Enzyme Inhibition and Medicinal Chemistry, 2019)

Columns and labels:
[1] = target: T1, human group V (hG-V) sPLA2 (Homo sapiens, UniProt P39877); experiment: In vitro antiphospholipase activity; assay type: biochemical; conditions: 20 min preincubation, lecithin substrate, pH 7.6; read-out: mean IC50 against hG-V (converted)
T1 sequence (P39877 21-138): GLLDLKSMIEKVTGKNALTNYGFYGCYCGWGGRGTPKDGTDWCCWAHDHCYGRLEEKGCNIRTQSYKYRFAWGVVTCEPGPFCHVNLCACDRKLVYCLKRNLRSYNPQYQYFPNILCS

[2] = target: T2, human group X (hG-X) sPLA2 (Homo sapiens, UniProt O15496); experiment: In vitro antiphospholipase activity; assay type: biochemical; conditions: 20 min preincubation, lecithin substrate, pH 7.6; read-out: mean IC50 against hG-X (converted)
T2 sequence (O15496 43-165): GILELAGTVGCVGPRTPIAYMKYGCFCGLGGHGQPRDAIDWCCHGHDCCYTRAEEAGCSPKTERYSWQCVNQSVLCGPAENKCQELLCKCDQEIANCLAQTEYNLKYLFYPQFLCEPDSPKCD

xanthine oxidase = xanthine oxidase (Homo sapiens, UniProt P47989); experiment: In vitro inhibition of xanthine oxidase; assay type: biochemical
Chain of xanthine oxidase (P47989 whole entry, species assumed): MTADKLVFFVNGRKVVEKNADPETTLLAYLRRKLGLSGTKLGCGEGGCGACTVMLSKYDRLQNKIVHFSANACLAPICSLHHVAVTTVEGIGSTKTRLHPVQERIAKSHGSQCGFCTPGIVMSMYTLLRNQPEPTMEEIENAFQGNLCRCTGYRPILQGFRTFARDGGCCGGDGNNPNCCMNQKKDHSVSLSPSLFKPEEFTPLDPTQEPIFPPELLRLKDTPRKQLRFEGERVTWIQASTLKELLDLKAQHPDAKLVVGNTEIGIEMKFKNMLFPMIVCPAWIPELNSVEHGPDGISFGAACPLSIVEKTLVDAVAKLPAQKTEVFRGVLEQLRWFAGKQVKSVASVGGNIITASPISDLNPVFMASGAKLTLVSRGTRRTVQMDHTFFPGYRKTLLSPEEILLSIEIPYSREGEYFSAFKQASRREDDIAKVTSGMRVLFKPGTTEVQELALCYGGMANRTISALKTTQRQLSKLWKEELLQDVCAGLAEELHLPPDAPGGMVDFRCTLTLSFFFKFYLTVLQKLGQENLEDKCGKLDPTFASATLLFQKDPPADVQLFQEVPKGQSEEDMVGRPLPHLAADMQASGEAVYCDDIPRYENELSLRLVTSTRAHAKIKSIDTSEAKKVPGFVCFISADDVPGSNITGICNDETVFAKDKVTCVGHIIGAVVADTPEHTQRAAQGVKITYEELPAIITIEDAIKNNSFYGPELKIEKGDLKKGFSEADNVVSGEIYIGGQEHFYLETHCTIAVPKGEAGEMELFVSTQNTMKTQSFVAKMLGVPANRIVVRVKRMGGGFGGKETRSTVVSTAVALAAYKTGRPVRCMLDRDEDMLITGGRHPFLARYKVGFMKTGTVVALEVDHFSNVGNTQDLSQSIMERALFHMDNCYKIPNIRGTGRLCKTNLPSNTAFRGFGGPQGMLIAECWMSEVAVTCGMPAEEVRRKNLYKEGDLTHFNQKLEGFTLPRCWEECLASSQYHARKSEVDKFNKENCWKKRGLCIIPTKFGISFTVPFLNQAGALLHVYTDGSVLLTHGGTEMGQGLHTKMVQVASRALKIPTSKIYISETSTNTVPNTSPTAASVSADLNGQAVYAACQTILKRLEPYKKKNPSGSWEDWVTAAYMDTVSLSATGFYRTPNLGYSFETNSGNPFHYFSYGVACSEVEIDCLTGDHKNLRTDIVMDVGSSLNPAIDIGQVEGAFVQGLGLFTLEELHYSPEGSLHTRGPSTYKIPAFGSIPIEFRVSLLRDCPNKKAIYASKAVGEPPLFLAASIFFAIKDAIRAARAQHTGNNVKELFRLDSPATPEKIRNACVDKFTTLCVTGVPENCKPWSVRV
Experimental: The xanthine oxidase inhibitory activities of the examined chemical compounds were determined by following the formation of uric acid from xanthine according to the reported method by Bondet and co-workers[46]. […] The results were expressed as IC50 determined from the curve.

[3] = target: Naja mossambica mossambica sPLA2 (NmPLA2); experiment: In vitro antiphospholipase activity; assay type: biochemical; conditions: 20 min preincubation, lecithin substrate, pH 7.6
HT-29 cells = experiment: MTT cell viability assay; assay type: cell-based, Human; conditions: for inhibition of cell viability (in words): HT-29, 30 μg/ml, MTT; for viability at 30 µg/mL: Homo sapiens, HT-29, 24 h, read-out: cell viability
Experimental: (§1) Human CRC cell lines, HT-29 and SW620 cells were grown in RPMI (Invitrogen) containing 10% heat-inactivated foetal bovine serum, 100 µg/ml streptomycin, 100 units/ml penicillin and 2 mmol/l L-glutamine.
(§2) Cell viability was determined using the 3-(4, 5-dimethylthiazolyl-2)–2, 5-diphenyltetrazolium bromide) MTT assay according to Mosmann[40]. 5-Fluorouracil (5-FU) was used as positive control. Briefly, after culturing cells in 96 well plates for 24 h, they were treated with different compounds (30 μg/ml) for 24 h. Freshly prepared MTT (5 mM) solutions were added to the cells and were further incubated for 2 h at 37 °C in 5% CO2. One hundred microliters of dimethyl sulphoxide (DMSO) was added in each well to dissolve the formazan crystal, formed in the reaction during incubation by careful pipetting. The absorbance of the product was measured at 540 nm using a microplate reader. The experiments were performed in triplicate for each condition. The graph illustrates the mean and standard deviation (SD) values of three independent experiments.

SW620 cells = experiment: MTT cell viability assay; assay type: cell-based, Human; conditions: for inhibition of cell viability (in words): SW620, 30 μg/ml, MTT; for viability at 30 µg/mL: Homo sapiens, SW-620, 24 h, read-out: cell viability
Experimental: as §1, §2

elastase = experiment: In vitro antiprotease activity; assay type: biochemical; conditions: 15 min preincubation
Experimental: (§3) The inhibitory effects of 21 3H-quinazolin-4-one derivatives on several available therapeutically important proteases such as cathepsin-B, collagenase, elastase, thrombin, and trypsin were investigated. […] The protease inhibitory activity was expressed as inhibition percentage, which was determined by comparison with a control experiment. The results were expressed as IC50 values that were determined from the standard curve. A protease inhibitor cocktail (Sigma) was used as the positive control.

cathepsin-B = cathepsin-B (Homo sapiens, UniProt P07858); experiment: In vitro antiprotease activity; assay type: biochemical; conditions: 15 min preincubation; read-out: mean IC50 against Cathepsin-B (converted)
Experimental: as §3

trypsin = target: T3, trypsin (Bos taurus, UniProt P00760); experiment: In vitro antiprotease activity; assay type: biochemical; conditions: 15 min preincubation; read-out: mean IC50 against Trypsin (converted)
T3 construct: gene PRSS1
T3 sequence (P00760 24-246): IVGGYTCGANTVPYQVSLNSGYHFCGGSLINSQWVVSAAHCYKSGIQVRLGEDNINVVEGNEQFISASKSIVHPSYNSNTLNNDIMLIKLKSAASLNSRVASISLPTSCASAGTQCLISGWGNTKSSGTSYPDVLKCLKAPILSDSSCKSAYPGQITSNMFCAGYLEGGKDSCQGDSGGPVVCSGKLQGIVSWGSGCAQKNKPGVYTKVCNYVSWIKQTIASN
Experimental: as §3

collagenase = experiment: In vitro antiprotease activity; assay type: biochemical; conditions: 15 min preincubation
Experimental: as §3

thrombin = thrombin (Homo sapiens, UniProt P00734); experiment: In vitro antiprotease activity; assay type: biochemical; conditions: 15 min preincubation; read-out: mean IC50 against Thrombin (converted)
Experimental: as §3

[4] = target: Apis mellifera bee venom (AmPLA2) (Apis mellifera, UniProt P00630); experiment: biochemical
Chain of Apis mellifera bee venom (AmPLA2) (P00630 34-167 limits assumed): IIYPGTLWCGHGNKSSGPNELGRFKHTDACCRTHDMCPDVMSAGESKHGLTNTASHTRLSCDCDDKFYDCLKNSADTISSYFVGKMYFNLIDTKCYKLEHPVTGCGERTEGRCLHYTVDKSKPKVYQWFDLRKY

[5] = target: T4, human group IIA (hG-IIA) sPLA2 (Homo sapiens, UniProt P14555); experiment: In vitro antiphospholipase activity; assay type: biochemical
T4 sequence (P14555 21-144): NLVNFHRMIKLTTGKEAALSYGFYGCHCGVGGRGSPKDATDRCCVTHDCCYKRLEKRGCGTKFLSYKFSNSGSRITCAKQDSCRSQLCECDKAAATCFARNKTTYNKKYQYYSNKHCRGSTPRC

SMILES	IC50 [1]	IC50 [2]	IC50 (xanthine oxidase)	mean IC50 against NmPLA2 [3]	inhibition of cell viability (in words) (HT-29 cells)	inhibition of cell viability (in words) (SW620 cells)	mean IC50 against Elastase (elastase)	IC50 (cathepsin-B)	IC50 (trypsin)	mean IC50 against Collagenase (collagenase)	IC50 (thrombin)	melting point	IC50 [4]	IC50 [5]	viability at 30 µg/mL (HT-29 cells)	viability at 30 µg/mL (SW620 cells)
Cc1ccc2nc(SCc3ccc(Cl)cc3)n(-c3ccccc3)c(=O)c2c1 [Compound 15b, 2-(4-Chloro-benzylsulfanyl)-6-methyl-3-phenyl-3H-quinazolin-4-one]	46.8 µM	34.4 µM	49.6 µM	14.85 ± 0.50 µg/mL	potently capable of inhibiting cell viability	potently capable of inhibiting cell viability	0.65 ± 0.02 µg/mL	34.4 µM	1.27 µM	26.50 ± 2.12 µg/mL	2.55 µM	164 to 165 °C	34.6 µM	66.2 µM		
O=c1c2ccccc2nc(SCc2ccc(Cl)cc2)n1-c1ccccc1 [Compound 15a]	27.7 µM	17.8 µM	31.7 µM	5.40 ± 0.57 µg/mL	potently capable of inhibiting cell viability	potently capable of inhibiting cell viability	11.50 ± 2.12 µg/mL	48.8 µM	31.7 µM	28.00 ± 1.41 µg/mL	35.6 µM		17.2 µM	22.7 µM		
O=c1[nH]cc(F)c(=O)[nH]1 [Compound 5-FU, 5-Fluorouracil, reference compound]															65.9%	42.7%
Cc1nc2ccc(Br)cc2c(=O)n1/N=C/c1ccc(-c2ccccc2)cc1 [Compound 8j, (E)-3-[(Biphenyl-4-ylmethylene)-amino]-6-bromo-2-methyl-3H-quinazolin-4-one]	14.9 µM	22.6 µM	49 µM	16.40 ± 0.85 µg/mL	potently capable of inhibiting cell viability	potently capable of inhibiting cell viability	9.00 ± 0.41 µg/mL	3.35 µM	22.7 µM	14.00 ± 1.41 µg/mL	29.9 µM	208 to 210 °C	45.4 µM	20.2 µM		
COc1cc(-n2c(C)nc3ccc(F)cc3c2=O)cc(OC)c1OC [Compound 5b, 6 -Fluoro-2-methyl-3–(3,4,5-trimethoxy-phenyl)-3H-quinazolin-4-one]	36.3 µM	24.7 µM	15.7 µM	4.15 ± 0.50 µg/mL			0.70 ± 0.01 µg/mL	31.9 µM	3.19 µM	18.00 ± 1.41 µg/mL	2.61 µM	193 to 195 °C	14.8 µM	60.3 µM		46.6%
Cc1cccc(C)c1NC(=O)CSc1nc2ccccc2c(=O)n1-c1ccccc1 [Compound 15c, N-(2,6-Dimethyl-phenyl)-2-(4-oxo-3-phenyl-3,4-dihydro-quinazolin-2-ylsulfanyl)-acetamide]	56.6 µM	102 µM	148 µM	28.50 ± 2.12 µg/mL			18.50 ± 0.71 µg/mL	26.5 µM	37.3 µM	18.00 ± 1.41 µg/mL	42.1 µM	218 to 220 °C	52.9 µM	96.3 µM	47.5%	
Cc1nc2ccccc2c(=O)n1/N=C/c1ccc2ccccc2c1 [Compound 8a, (E)-2-Methyl-3-[(naphthalen-2-ylmethylene)-amino]-3H-quinazolin-4-one]	121 µM	90.9 µM	137 µM	36.75 ± 2.48 µg/mL	potently capable of inhibiting cell viability	potently capable of inhibiting cell viability	32.50 ± 2.12 µg/mL	116 µM	110 µM	31.00 ± 1.41 µg/mL	109 µM		98.9 µM	145 µM		
Cc1nc2ccc(Br)cc2c(=O)n1/N=C/c1ccc(C#N)cc1 [Compound 8h, (E)-4-[(6-Bromo-2-methyl-4-oxo-4H-quinazolin-3-ylimino)-methyl]-benzonitrile]	92.6 µM	112 µM	154 µM	22.90 ± 1.27 µg/mL			27.50 ± 2.12 µg/mL	10.9 µM	91.2 µM	14.50 ± 2.12 µg/mL	66.7 µM	228 to 230 °C	79 µM	120 µM		
Cc1nc2ccccc2c(=O)n1/N=C/c1ccc(-c2ccccn2)cc1 [Compound 8c, (E)-2-Methyl-3-[(4-pyridin-2-yl-benzylidene)-amino]-3H-quinazolin-4-one]	30.8 µM	69.8 µM	11.8 µM	7.60 ± 0.85 µg/mL			32.00 ± 2.83 µg/mL	36.7 µM	103 µM	23.50 ± 0.71 µg/mL	69 µM	188 to 190 °C	16.5 µM	22.2 µM		
Cc1nc2ccccc2c(=O)n1NC(=O)OCC(C)C [Compound 10, (2-methyl-4-oxo-4H-quinazolin-3-yl)-carbamic acid isobutyl ester]	62.7 µM	34.5 µM	109 µM	13.45 ± 0.78 µg/mL			1.45 ± 0.21 µg/mL	81.7 µM	4 µM	28.00 ± 1.41 µg/mL	8.54 µM	168 to 170 °C	16.3 µM	56.3 µM		
Cc1ccc2nc(SCC(=O)Nc3cccc(C)c3C)n(-c3ccccc3)c(=O)c2c1 [Compound 15f, N-(2,3-Dimethyl-phenyl)-2-(6-methyl-4-oxo-3-phenyl-3,4-dihydro-quinazolin-2-ylsulfanyl) -acetamide]	70.1 µM	51.2 µM	136 µM	33.00 ± 2.83 µg/mL			16.00 ± 1.41 µg/mL	9.31 µM	39.6 µM	10.50 ± 2.12 µg/mL	40.7 µM	218 to 220 °C	86.7 µM	90.8 µM		
COc1cccc(/C=N/n2c(C)nc3ccccc3c2=O)c1[N+](=O)[O-] [Compound 8e, (E)-3-[(3-Methoxy-2-nitro-benzylidene)-amino]-2-methyl-3H-quinazolin-4-one]	70.2 µM	34.7 µM	102 µM	7.75 ± 0.35 µg/mL			1.25 ± 0.05 µg/mL	6.95 µM	2.51 µM	15.50 ± 2.12 µg/mL	4.43 µM	178 to 180 °C	22.5 µM	49.1 µM		
